Test results published in PubChem BioAssay AID256 (DTP/NCI, 2004).
Several values for one entry are separate records, joined by “and”; a condition that tells them apart may be missing. Equal values may be shown once. Inconclusive results and toxic doses are left out.

Tested on: CD2F1 mice, L1210 leukemia ip, survival T/C
Test: NCI In Vivo Anticancer Drug Screen. Data for tumor model L1210 Leukemia (intraperitoneal) in CD2F1 (CDF1) mice
Details: higher = longer survival
Summary of the method: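 Mice carrying a transplanted tumor received test compound or vehicle alone. The value is the measurement in the treated group divided by that in the vehicle-treated control group.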

[1] = endpoint: mean survival time, dose: 100.0 mg/kg/injection, schedule: Q01DX009 (ip), vehicle: Klucel (hydroxypropylcellulose) (HPC)
[2] = endpoint: mean survival time, dose: 6.25 mg/kg/injection, schedule: Q01DX009 (ip), vehicle: saline with Tween-80
[3] = endpoint: mean survival time, dose: 12.5 mg/kg/injection, schedule: Q01DX009 (ip), vehicle: saline with Tween-80
[4] = endpoint: mean survival time, dose: 25.0 mg/kg/injection, schedule: Q01DX009 (ip), vehicle: saline with Tween-80
[5] = endpoint: mean survival time, dose: 50.0 mg/kg/injection, schedule: Q01DX009 (ip), vehicle: saline with Tween-80
[6] = endpoint: mean survival time, dose: 50.0 mg/kg/injection, schedule: Q04DX002 (ip), vehicle: saline with Tween-80
[7] = endpoint: mean survival time, dose: 100.0 mg/kg/injection, schedule: Q01DX001 (ip), vehicle: saline with Tween-80
[8] = endpoint: mean survival time, dose: 200.0 mg/kg/injection, schedule: Q01DX001 (ip), vehicle: saline with Tween-80
[9] = endpoint: mean survival time, dose: 400.0 mg/kg/injection, schedule: Q01DX001 (ip), vehicle: saline with Tween-80
[10] = endpoint: mean survival time, dose: 100.0 mg/kg/injection, schedule: Q04DX002 (ip), vehicle: saline with Tween-80
[11] = endpoint: mean survival time, dose: 200.0 mg/kg/injection, schedule: Q04DX002 (ip), vehicle: saline with Tween-80
[12] = endpoint: mean survival time, dose: 400.0 mg/kg/injection, schedule: Q04DX002 (ip), vehicle: saline with Tween-80
[13] = endpoint: mean survival time, dose: 100.0 mg/kg/injection, schedule: Q04DX003 (ip), vehicle: saline with Tween-80
[14] = endpoint: mean survival time, dose: 200.0 mg/kg/injection, schedule: Q04DX003 (ip), vehicle: saline with Tween-80
[15] = endpoint: mean survival time, dose: 400.0 mg/kg/injection, schedule: Q04DX003 (ip), vehicle: saline with Tween-80
[16] = endpoint: mean survival time, dose: 25.0 mg/kg/injection, schedule: Q01DX009 (ip), vehicle: saline
[17] = endpoint: mean survival time, dose: 50.0 mg/kg/injection, schedule: Q01DX009 (ip), vehicle: saline
[18] = endpoint: mean survival time, dose: 100.0 mg/kg/injection, schedule: Q01DX009 (ip), vehicle: saline
[19] = endpoint: mean survival time, dose: 200.0 mg/kg/injection, schedule: Q01DX009 (ip), vehicle: saline
[20] = endpoint: mean survival time, dose: 100.0 mg/kg/injection, schedule: Q01DX009 (ip), vehicle: saline with Tween-80

## COc1cc2c(ccc3c4cc(OC)c(OC)cc4c[n+](C)c23)cc1O
endpoint: mean survival time, dose: 80.0 mg/kg/injection, schedule: Q01DX009 (ip), vehicle: saline
  T/C: 150 % of control
endpoint: mean survival time, dose: 160.0 mg/kg/injection, schedule: Q01DX009 (ip), vehicle: saline with Tween-80
  T/C: 150 % of control
endpoint: mean survival time, dose: 160.0 mg/kg/injection, schedule: Q01DX009 (ip), vehicle: saline
  T/C: 174 % of control
endpoint: mean survival time, dose: 320.0 mg/kg/injection, schedule: Q01DX009 (ip), vehicle: saline with Tween-80
  T/C: 87 % of control
endpoint: mean survival time, dose: 320.0 mg/kg/injection, schedule: Q01DX009 (ip), vehicle: saline
  T/C: 86 % of control

## O=C(CC(=O)c1cccc([N+](=O)[O-])c1)Nc1cccc([N+](=O)[O-])c1
[1]
  T/C: 92 % of control
endpoint: mean survival time, dose: 100.0 mg/kg/injection, schedule: Q04DX003 (ip), vehicle: Klucel (hydroxypropylcellulose) (HPC)
  T/C: 90 % of control
endpoint: mean survival time, dose: 200.0 mg/kg/injection, schedule: Q01DX009 (ip), vehicle: Klucel (hydroxypropylcellulose) (HPC)
  T/C: 92 % of control
endpoint: mean survival time, dose: 200.0 mg/kg/injection, schedule: Q04DX003 (ip), vehicle: Klucel (hydroxypropylcellulose) (HPC)
  T/C: 96 % of control
endpoint: mean survival time, dose: 400.0 mg/kg/injection, schedule: Q01DX009 (ip), vehicle: Klucel (hydroxypropylcellulose) (HPC)
  T/C: 94 % of control
endpoint: mean survival time, dose: 400.0 mg/kg/injection, schedule: Q04DX003 (ip), vehicle: Klucel (hydroxypropylcellulose) (HPC)
  T/C: 96 % of control

## COCNC(=S)N/N=C/c1ccccn1
[2]
  T/C: 97 % of control
[3]
  T/C: 100 % of control
endpoint: mean survival time, dose: 12.5 mg/kg/injection, schedule: Q04DX002 (ip), vehicle: saline with Tween-80
  T/C: 94 % of control
[4]
  T/C: 97 % of control
endpoint: mean survival time, dose: 25.0 mg/kg/injection, schedule: Q04DX002 (ip), vehicle: saline with Tween-80
  T/C: 97 % of control
[5]
  T/C: 122 % of control
[6]
  T/C: 97 % of control

## O=c1[nH]c2cc([N+](=O)[O-])ccc2c2ccccc12
endpoint: mean survival time, dose: 50.0 mg/kg/injection, schedule: Q01DX001 (ip), vehicle: carboxymethylcellulose (CMC)
  T/C: 101 % of control
endpoint: mean survival time, dose: 100.0 mg/kg/injection, schedule: Q01DX001 (ip), vehicle: carboxymethylcellulose (CMC)
  T/C: 98 % of control
endpoint: mean survival time, dose: 200.0 mg/kg/injection, schedule: Q01DX001 (ip), vehicle: carboxymethylcellulose (CMC)
  T/C: 98 % of control
endpoint: mean survival time, dose: 400.0 mg/kg/injection, schedule: Q01DX001 (ip), vehicle: carboxymethylcellulose (CMC)
  T/C: 98 % of control

## CC(=O)Nc1ccc2c(c1)CCC2=O
[7]
  T/C: 91 % of control
[8]
  T/C: 95 % of control
[9]
  T/C: 98 % of control

## O=S(=O)(CCCCCl)Nc1ccccn1
[10]
  T/C: 91 % of control
[11]
  T/C: 94 % of control
[12]
  T/C: 109 % of control

## CCOC(=O)C(OC(=O)c1ccccc1)c1ccccc1 (stereo not drawn)
endpoint: mean survival time, dose: 100.0 mg/kg/injection, schedule: Q01DX009 (ip), vehicle: other
  T/C: 98 % of control
endpoint: mean survival time, dose: 200.0 mg/kg/injection, schedule: Q01DX009 (ip), vehicle: other
  T/C: 96 % of control
endpoint: mean survival time, dose: 400.0 mg/kg/injection, schedule: Q01DX009 (ip), vehicle: other
  T/C: 96 % of control

## C=C(Cl)CSCCS
endpoint: mean survival time, dose: 50.0 mg/kg/injection, schedule: Q01DX009 (ip), vehicle: acetone
  T/C: 101 % of control
endpoint: mean survival time, dose: 100.0 mg/kg/injection, schedule: Q01DX009 (ip), vehicle: acetone
  T/C: 103 % of control

## CC1SC(=Nc2ccc(S(N)(=O)=O)cc2)NC1=O (stereo not drawn)
[6]
  T/C: 105 % of control
[10]
  T/C: 105 % of control
[8]
  T/C: 89 % of control
[11]
  T/C: 102 % of control

## C1CCC(N(C2CCCCC2)C2CCCCC2)CC1
[7]
  T/C: 107 % of control
[8]
  T/C: 104 % of control
endpoint: mean survival time, dose: 300.0 mg/kg/injection, schedule: Q01DX001 (ip), vehicle: saline with Tween-80
  T/C: 96 % of control

## CC1=CCC2(C)CCC(C(C)C)C2(O)CC1 (stereo not drawn)
endpoint: mean survival time, dose: 100.0 mg/kg/injection, schedule: Q04DX003 (ip), vehicle: saline
  T/C: 101 % of control
endpoint: mean survival time, dose: 200.0 mg/kg/injection, schedule: Q04DX003 (ip), vehicle: saline
  T/C: 93 % of control
endpoint: mean survival time, dose: 400.0 mg/kg/injection, schedule: Q04DX003 (ip), vehicle: saline
  T/C: 102 % of control

## Brc1cn[nH]c1Br
[13]
  T/C: 98 % of control
[14]
  T/C: 104 % of control
[15]
  T/C: 88 % of control

## C#CC(C)O (stereo not drawn)
[16]
  T/C: 96 % of control
[17]
  T/C: 89 % of control

## CCN1C2CCC1CC(O)C2 (stereo not drawn)
endpoint: mean survival time, dose: 100.0 mg/kg/injection, schedule: Q04DX002 (ip), vehicle: saline
  T/C: 94 % of control
endpoint: mean survival time, dose: 200.0 mg/kg/injection, schedule: Q04DX002 (ip), vehicle: saline
  T/C: 94 % of control
endpoint: mean survival time, dose: 400.0 mg/kg/injection, schedule: Q04DX002 (ip), vehicle: saline
  T/C: 105 % of control

## C=C1C(=O)OC2CCCC/C=C\C12 (stereo not drawn)
[17]
  T/C: 100 % of control
[18]
  T/C: 102 % of control
[19]
  T/C: 97 % of control

## O=c1c2ncn(C3OC(CO)C(O)C3O)c2nc[n]1[Hg][c]1ccccc1 (stereo not drawn)
endpoint: median survival time, dose: 0.79 mg/kg/injection, schedule: Q01DX005 (ip), vehicle: saline
  T/C: 103 % of control
endpoint: median survival time, dose: 1.56 mg/kg/injection, schedule: Q01DX005 (ip), vehicle: saline
  T/C: 111 % of control
endpoint: median survival time, dose: 3.12 mg/kg/injection, schedule: Q01DX005 (ip), vehicle: saline
  T/C: 115 % of control
endpoint: median survival time, dose: 6.25 mg/kg/injection, schedule: Q01DX005 (ip), vehicle: saline
  T/C: 105 % of control
endpoint: median survival time, dose: 12.5 mg/kg/injection, schedule: Q01DX005 (ip), vehicle: saline
  T/C: 112 % of control

## CC(N)(CCC(=O)O)C(=O)O (stereo not drawn)
[20]
  T/C: 96 % of control
endpoint: mean survival time, dose: 200.0 mg/kg/injection, schedule: Q01DX009 (ip), vehicle: saline with Tween-80
  T/C: 101 % of control

## CCCCCCCCCCCCCC#CC(=O)O
endpoint: mean survival time, dose: 3.12 mg/kg/injection, schedule: Q01DX009 (ip), vehicle: saline with Tween-80
  T/C: 101 % of control and 109 % of control
[2]
  T/C: 96 % of control and 98 % of control
[3]
  T/C: 91 % of control and 98 % of control
[4]
  T/C: 91 % of control and 98 % of control
[5]
  T/C: 91 % of control and 95 % of control
[20]
  T/C: 88 % of control

## CCOC(=O)C(N)CSC(=O)NC (stereo not drawn)
endpoint: mean survival time, dose: 12.5 mg/kg/injection, schedule: Q01DX009 (ip), vehicle: saline
  T/C: 95 % of control
[16]
  T/C: 103 % of control and 107 % of control
[17]
  T/C: 116 % of control and 97 % of control
[18]
  T/C: 123 % of control and 105 % of control
[19]
  T/C: 116 % of control and 111 % of control
endpoint: mean survival time, dose: 800.0 mg/kg/injection, schedule: Q01DX009 (ip), vehicle: saline
  T/C: 94 % of control

## CC1CCC(=O)C2(C)CC3OC(=O)C(C)C3C=C12 (stereo not drawn)
[13]
  T/C: 94 % of control
[14]
  T/C: 93 % of control
[15]
  T/C: 86 % of control

## O=C(OCC1OCOC(COC(=O)c2ccccc2)C(OC(=O)c2ccccc2)C1OC(=O)c1ccccc1)c1ccccc1 (stereo not drawn)
[10]
  T/C: 100 % of control
[11]
  T/C: 88 % of control
[12]
  T/C: 88 % of control

## Cc1ccc(C2=C(Br)C(=O)C(c3ccc(C)cc3C)=C(Br)C2=O)c(C)c1
[7]
  T/C: 92 % of control
[8]
  T/C: 92 % of control
[9]
  T/C: 101 % of control

## CN(C)S(=O)(=O)Oc1ccccc1N
[13]
  T/C: 99 % of control
[14]
  T/C: 87 % of control
[15]
  T/C: 94 % of control

## Nc1ncnc2c1ncn2C1OC(COCc2ccccc2)C(OCc2ccccc2)C1OCc1ccccc1 (stereo not drawn)
endpoint: mean survival time, dose: 20.0 mg/kg/injection, schedule: Q01DX Z (ip), vehicle: saline
  T/C: 90 % of control
endpoint: mean survival time, dose: 40.0 mg/kg/injection, schedule: Q01DX Z (ip), vehicle: saline
  T/C: 90 % of control
endpoint: mean survival time, dose: 80.0 mg/kg/injection, schedule: Q01DX Z (ip), vehicle: saline
  T/C: 90 % of control and 93 % of control
endpoint: mean survival time, dose: 160.0 mg/kg/injection, schedule: Q01DX Z (ip), vehicle: saline
  T/C: 91 % of control and 96 % of control

## CSc1nnnn1-c1ccccc1
endpoint: mean survival time, dose: 50.0 mg/kg/injection, schedule: Q01DX009 (ip), vehicle: Klucel (hydroxypropylcellulose) (HPC)
  T/C: 111 % of control
[1]
  T/C: 104 % of control

## O=C(NO)c1cc(Br)cc(Br)c1O
[10]
  T/C: 96 % of control
[11]
  T/C: 92 % of control
[12]
  T/C: 103 % of control

## CC(=O)OC1COC(n2cnc3c(=O)[nH]cnc32)C(OC(C)=O)C1OC(C)=O (stereo not drawn)
endpoint: mean survival time, dose: 12.5 mg/kg/injection, schedule: Q01DX001 (ip), vehicle: saline
  T/C: 100 % of control and 109 % of control
endpoint: mean survival time, dose: 25.0 mg/kg/injection, schedule: Q01DX001 (ip), vehicle: saline
  T/C: 100 % of control and 106 % of control
endpoint: mean survival time, dose: 50.0 mg/kg/injection, schedule: Q01DX001 (ip), vehicle: saline
  T/C: 118 % of control and 103 % of control
endpoint: mean survival time, dose: 100.0 mg/kg/injection, schedule: Q01DX001 (ip), vehicle: saline
  T/C: 97 % of control and 106 % of control
